Test results: patent US12077503B2, “Substituted cyclic amides and their use as herbicides” (FMC CORPORATION, priority 2015, dated 2024)

Assays:
Assay type in all cases: in vivo
[1] = system: ducksalad (Heteranthera limosa); test: Test B flooded paddy test; conditions: Heteranthera limosa, Flood, 250 g ai/ha; scale of 0 to 100 where 0 is no effect and 100 is complete control; read-out: Ducksalad plant response rating
Summary of the method: (§1)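 Greenhouse paddy pots with 2-leaf stage plants received compound by direct addition to floodwater 3 cm deep, kept at that level. Scored visually at 13–15 d versus controls (0 no effect; 100 complete control).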

rice (Oryra sativa) = test: Test B flooded paddy test; conditions: Oryza sativa, Flood, 250 g ai/ha; scale of 0 to 100 where 0 is no effect and 100 is complete control; read-out: Rice plant response rating
Summary of the method: as §1

[2] = system: barnyardgrass (Echinochloa crus-galli); test: Test B flooded paddy test; conditions: Echinochloa crus-galli, Flood, 250 g ai/ha; scale of 0 to 100 where 0 is no effect and 100 is complete control; read-out: Barnyardgrass plant response rating
Summary of the method: as §1

[3] = system: sedge, umbrella (small-flower umbrella sedge, Cyperus difformis); test: Test B flooded paddy test; conditions: Cyperus difformis, Flood, 250 g ai/ha; scale of 0 to 100 where 0 is no effect and 100 is complete control; read-out: Sedge, Umbrella plant response rating
Summary of the method: as §1

[4] = system: ragweed (common ragweed, Ambrosia elatior); test: Test A postemergence; conditions: Ambrosia artemisiifolia, post-emergence, 240 h, 125 g ai/ha, Postemergence; visual injury after approximately 10 d; 0 to 100 scale where 0 is no effect and 100 is complete control; read-out: Plant response rating, Ragweed
Summary of the method: (§2)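 Greenhouse, ~10 d after spray; visual injury vs untreated controls, 0 = no effect, 100 = complete control. Preemergence: directed soil spray over planted seeds. Postemergence: plants 2–10 cm, 1–2 leaf stage. Loam/sand blend. Compound in non-phytotoxic solvent with surfactant.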

[5] = system: Galium (catchweed bedstraw, Galium aparine); test: Test A postemergence; conditions: Galium, post-emergence, 240 h, 125 g ai/ha, Postemergence; visual injury after approximately 10 d; 0 to 100 scale where 0 is no effect and 100 is complete control; read-out: Plant response rating, Galium
Summary of the method: as §2

[6] = system: blackgrass (Alopecurus myosuroides); test: Test A postemergence; conditions: Alopecurus myosuroides, post-emergence, 240 h, 125 g ai/ha, Postemergence; visual injury after approximately 10 d; 0 to 100 scale where 0 is no effect and 100 is complete control; read-out: Plant response rating, Blackgrass
Summary of the method: as §2

Kochia (Kochia scoparia) [7] = test: Test A postemergence; conditions: Bassia scoparia, post-emergence, 240 h, 125 g ai/ha, Postemergence; visual injury after approximately 10 d; 0 to 100 scale where 0 is no effect and 100 is complete control; read-out: Plant response rating, Kochia
Summary of the method: as §2

[8] = system: ryegrass, Italian (Italian ryegrass, Lolium multiflorum); test: Test A postemergence; conditions: Lolium multiflorum, post-emergence, 240 h, 125 g ai/ha, Postemergence; visual injury after approximately 10 d; 0 to 100 scale where 0 is no effect and 100 is complete control; read-out: Plant response rating, Ryegrass, Italian
Summary of the method: as §2

[9] = system: pigweed (Amaranthus retroflexus); test: Test A postemergence; conditions: Amaranthus retroflexus, post-emergence, 240 h, 125 g ai/ha, Postemergence; visual injury after approximately 10 d; 0 to 100 scale where 0 is no effect and 100 is complete control; read-out: Plant response rating, Pigweed
Summary of the method: as §2

[10] = system: wheat (Triticum aestivum); test: Test A postemergence; conditions: Triticum aestivum, post-emergence, 240 h, 125 g ai/ha, Postemergence; visual injury after approximately 10 d; 0 to 100 scale where 0 is no effect and 100 is complete control; read-out: Plant response rating, Wheat
Summary of the method: as §2

[11] = system: barnyardgrass (Echinochloa crus-galli); test: Test A postemergence; conditions: Echinochloa crus-galli, post-emergence, 240 h, 125 g ai/ha, Postemergence; visual injury after approximately 10 d; 0 to 100 scale where 0 is no effect and 100 is complete control; read-out: Plant response rating, Barnyardgrass
Summary of the method: as §2

[12] = system: giant foxtail (Setaria faberii); test: Test A postemergence; conditions: Setaria faberi, post-emergence, 240 h, 125 g ai/ha, Postemergence; visual injury after approximately 10 d; 0 to 100 scale where 0 is no effect and 100 is complete control; read-out: Plant response rating, Foxtail, Giant
Summary of the method: as §2

corn (Zea mays) = test: Test A postemergence; conditions: Zea mays, post-emergence, 240 h, 125 g ai/ha, Postemergence; visual injury after approximately 10 d; 0 to 100 scale where 0 is no effect and 100 is complete control
Summary of the method: as §2

[13] = system: ragweed (common ragweed, Ambrosia elatior); test: Test A preemergence; conditions: Ambrosia artemisiifolia, pre-emergence, 240 h
Summary of the method: as §2

Kochia (Kochia scoparia) [14] = test: Test A preemergence; conditions: Bassia scoparia, pre-emergence, 240 h
Summary of the method: as §2

[15] = system: ryegrass, Italian (Italian ryegrass, Lolium multiflorum); test: Test A preemergence; conditions: Lolium multiflorum, pre-emergence, 240 h
Summary of the method: as §2

[16] = system: pigweed (Amaranthus retroflexus); test: Test A preemergence; conditions: Amaranthus retroflexus, pre-emergence, 240 h
[17] = system: barnyardgrass (Echinochloa crus-galli); test: Test A preemergence; conditions: Echinochloa crus-galli, pre-emergence, 240 h
Summary of the method: as §2

[18] = system: giant foxtail (Setaria faberii); test: Test A preemergence; conditions: Setaria faberi, pre-emergence, 240 h
Summary of the method: as §2

## CC(C)COc1cccc([C@H]2CNC(=O)[C@@H]2C(=O)Nc2ccccc2F)c1 [Compound 964]
[1]
  pest or weed control at 250 g/ha: 75%
Rice (Oryra sativa)
  pest or weed control at 250 g/ha: 15%
[2]
  pest or weed control at 250 g/ha: 0%
[3]
  pest or weed control at 250 g/ha: 0%
[4]
  pest or weed control at 125 g/ha: 0%
[5]
  pest or weed control at 125 g/ha: 40%
[6]
  pest or weed control at 125 g/ha: 0%
Kochia (Kochia scoparia) [7]
  pest or weed control at 125 g/ha: 0%
[8]
  pest or weed control at 125 g/ha: 0%
[9]
  pest or weed control at 125 g/ha: 0%
[10]
  plant injury at 125 g/ha: 0%
[11]
  pest or weed control at 125 g/ha: 60%
[12]
  pest or weed control at 125 g/ha: 60%
Corn (Zea mays)
  Corn plant response rating (crop injury, 0 = no effect, 100 = complete kill) at 125 g/ha: 0%
[13]; 125 g ai/ha, Preemergence, visual injury rating after approximately 10 d, read-out: Ragweed plant response rating (0 to 100 scale, 0 is no effect, 100 is complete control)
  pest or weed control at 125 g/ha: 0%
[13]; 500 g ai/ha, preemergence, visual injury rating about 10 d after treatment, 0 to 100 scale (0 no effect, 100 complete control), read-out: Ragweed plant response rating
  pest or weed control at 500 g/ha: 0%
Kochia (Kochia scoparia) [14]; 125 g ai/ha, Preemergence, visual injury rating after approximately 10 d, read-out: Kochia plant response rating (0 to 100 scale, 0 is no effect, 100 is complete control)
  pest or weed control at 125 g/ha: 0%
Kochia (Kochia scoparia) [14]; 500 g ai/ha, preemergence, visual injury rating about 10 d after treatment, 0 to 100 scale (0 no effect, 100 complete control), read-out: Kochia plant response rating
  pest or weed control at 500 g/ha: 20%
[15]; 125 g ai/ha, Preemergence, visual injury rating after approximately 10 d, read-out: Ryegrass, Italian plant response rating (0 to 100 scale, 0 is no effect, 100 is complete control)
  pest or weed control at 125 g/ha: 0%
[15]; 500 g ai/ha, preemergence, visual injury rating about 10 d after treatment, 0 to 100 scale (0 no effect, 100 complete control), read-out: Ryegrass, Italian plant response rating
  pest or weed control at 500 g/ha: 30%
[16]; 125 g ai/ha, Preemergence, visual injury rating after approximately 10 d, read-out: Pigweed plant response rating (0 to 100 scale, 0 is no effect, 100 is complete control)
  pest or weed control at 125 g/ha: 0%
[16]; 500 g ai/ha, preemergence, visual injury rating about 10 d after treatment, 0 to 100 scale (0 no effect, 100 complete control), read-out: Pigweed plant response rating
  pest or weed control at 500 g/ha: 0%
[17]; 125 g ai/ha, Preemergence, visual injury rating after approximately 10 d, read-out: Barnyardgrass plant response rating (0 to 100 scale, 0 is no effect, 100 is complete control)
  pest or weed control at 125 g/ha: 90%
[17]; 500 g ai/ha, preemergence, visual injury rating about 10 d after treatment, 0 to 100 scale (0 no effect, 100 complete control), read-out: Barnyardgrass plant response rating
  pest or weed control at 500 g/ha: 90%
[18]; 125 g ai/ha, Preemergence, visual injury rating after approximately 10 d, read-out: Foxtail, Giant plant response rating (0 to 100 scale, 0 is no effect, 100 is complete control)
  pest or weed control at 125 g/ha: 90%
[18]; 500 g ai/ha, preemergence, visual injury rating about 10 d after treatment, 0 to 100 scale (0 no effect, 100 complete control), read-out: Foxtail, Giant plant response rating
  pest or weed control at 500 g/ha: 90%
